According to patent US9695155B2, “Herbicidal substituted pyrimidinyloxy benzene compounds” (E. I. DU PONT DE NEMOURS AND COMPANY, priority 2013, dated 2017):

What was measured:
pigweed = test: Test D preemergence; type: in vivo, Amaranthus retroflexus; details: Amaranthus retroflexus, pre-emergence; for pest or weed control at 16 g/ha: 16 g ai/ha; for pest or weed control at 16 g/ha / pest or weed control at 31 g/ha: scale 0 (no effect) to 100 (complete control), read-out: Plant response rating, Pigweed; for pest or weed control at 31 g/ha: 31 g ai/ha; for pest or weed control at 62 g/ha: 62 g ai/ha; for pest or weed control at 125 g/ha: 125 g ai/ha
Source text: (§1) Seeds of plant species selected from bluegrass (annual bluegrass, Poa annua), blackgrass (Alopecurus myosuroides), canarygrass (littleseed canarygrass, Phalaris minor), chickweed (common chickweed, Stellaria media), galium (catchweed bedstraw, Galium aparine), bromegrass, downy (downy bromegrass, Bromus tectorum), field poppy (Papaver rhoeas), field violet (Viola arvensis), green foxtail (Setaria viridis), deadnettle (henbit deadnettle, Lamium amplexicaule), Italian ryegrass (Lolium multiflorum), kochia (Kochia scoparia), lambsquarters (Chenopodium album), oilseed rape (Brassica napus), pigweed (Amaranthus retroflexus), chamomile (scentless chamomile, Matricaria inodora), Russian thistle (Salsola kali), speedwell (bird's-eye speedwell, Veronica persica), spring barley (Hordeum vulgare), spring wheat (Triticum aestivum), wild buckwheat (Polygonum convolvulus), wild mustard (Sinapis arvensis), wild oat (Avena fatua), wild radish (Raphanus raphanistrum), windgrass (Apera spica-venti), winter barley (Hordeum vulgare), and winter wheat (Triticum aestivum) were planted into a silt loam soil and treated preemergence with test chemicals formulated in a non-phytotoxic solvent mixture which included a surfactant.
(§2) At the same time, these species were planted in pots containing Redi-Earth® planting medium (Scotts Company, 14111 Scottslawn Road, Marysville, Ohio 43041) comprising spaghnum peat moss, vermiculite, wetting agent and starter nutrients and treated with postemergence applications of the test chemicals formulated in the same manner. Plants ranged in height from 2 to 18 cm (1- to 4-leaf stage). Treated plants and controls were maintained in a controlled growth environment for 7 to 21 days after which time all species were compared to controls and visually evaluated. Plant response ratings, summarized in Table D, are based on a scale of 0 to 100 where 0 is no effect and 100 is complete control. A dash (-) response means no test result.

blackgrass = test: Test D postemergence; type: in vivo, Alopecurus myosuroides; details: Alopecurus myosuroides, post-emergence, Postemergence, scale 0 to 100 (0 no effect, 100 complete control), read-out: Plant response rating, Blackgrass; for pest or weed control at 62 g/ha: 62 g ai/ha; for pest or weed control at 16 g/ha: 16 g ai/ha; for pest or weed control at 31 g/ha: 31 g ai/ha; for pest or weed control at 125 g/ha: 125 g ai/ha
Source text: as §1, §2

bluegrass = test: Test D postemergence; type: in vivo, Poa annua; details: Poa annua, post-emergence, Postemergence, scale 0 to 100 (0 no effect, 100 complete control), read-out: Plant response rating, Bluegrass; for pest or weed control at 16 g/ha: 16 g ai/ha; for pest or weed control at 31 g/ha: 31 g ai/ha; for pest or weed control at 62 g/ha: 62 g ai/ha; for pest or weed control at 125 g/ha: 125 g ai/ha
How it was run: (§3)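 Visual ratings from 0 (no effect) to 100 (complete control) relative to untreated plants were taken 7–21 days after treatment. Chemicals in a surfactant-containing solvent mixture were applied preemergence to seeds in silt loam, or postemergence to plants 2–18 cm tall (1–4 leaves) grown in a peat-based potting medium.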

deadnettle = test: Test D postemergence; type: in vivo, Lamium amplexicaule; details: Lamium amplexicaule, post-emergence; for pest or weed control at 16 g/ha: 16 g ai/ha, scale 0-100, read-out: Plant response rating, Deadnettle; for pest or weed control at 31 g/ha: 31 g ai/ha; for pest or weed control at 62 g/ha: 62 g ai/ha; for pest or weed control at 125 g/ha: 125 g ai/ha
Source text: as §1, §2

field poppy = test: Test D postemergence; type: in vivo, Papaver rhoeas; details: Papaver rhoeas, post-emergence; for pest or weed control at 16 g/ha: 16 g ai/ha, scale 0-100, read-out: Plant response rating, Field Poppy; for pest or weed control at 31 g/ha: 31 g ai/ha; for pest or weed control at 62 g/ha: 62 g ai/ha; for pest or weed control at 125 g/ha: 125 g ai/ha
Source text: as §1, §2

wild radish = test: Test D preemergence; type: in vivo, Raphanus raphanistrum; details: Raphanus raphanistrum, pre-emergence; for pest or weed control at 16 g/ha: 16 g ai/ha; for pest or weed control at 16 g/ha / pest or weed control at 31 g/ha: scale 0 (no effect) to 100 (complete control), read-out: Plant response rating, Radish, Wild; for pest or weed control at 31 g/ha: 31 g ai/ha; for pest or weed control at 62 g/ha: 62 g ai/ha; for pest or weed control at 125 g/ha: 125 g ai/ha
Source text: as §1, §2

wild mustard = test: Test D preemergence; type: in vivo, Sinapis arvensis; details: Brassica, pre-emergence; for pest or weed control at 16 g/ha: 16 g ai/ha, scale 0 (no effect) to 100 (complete control), read-out: Plant response rating, Mustard, Wild; for pest or weed control at 31 g/ha: 31 g ai/ha; for pest or weed control at 62 g/ha: 62 g ai/ha; for pest or weed control at 125 g/ha: 125 g ai/ha
How it was run: as §3

spring barley = test: Test D postemergence; type: in vivo, Hordeum vulgare; details: Hordeum vulgare, post-emergence, Postemergence, scale 0 to 100 (0 no effect, 100 complete control), read-out: Plant response rating, Barley, Spring; for plant injury at 16 g/ha: 16 g ai/ha; for plant injury at 31 g/ha: 31 g ai/ha; for plant injury at 62 g/ha: 62 g ai/ha; for plant injury at 125 g/ha: 125 g ai/ha
Source text: as §1, §2

winter barley = test: Test D postemergence; type: in vivo, Hordeum vulgare; details: Hordeum vulgare, post-emergence, Postemergence, scale 0 to 100 (0 no effect, 100 complete control), read-out: Plant response rating, Barley, Winter; for plant injury at 16 g/ha: 16 g ai/ha; for plant injury at 31 g/ha: 31 g ai/ha; for plant injury at 62 g/ha: 62 g ai/ha; for plant injury at 125 g/ha: 125 g ai/ha
Source text: as §1, §2

[1] = scale 0-100, read-out: Plant response rating, Pigweed
[2] = scale 0 to 100 (0 no effect, 100 complete control), read-out: Plant response rating, Deadnettle
[3] = scale 0 to 100 (0 no effect, 100 complete control), read-out: Plant response rating, Field Poppy
[4] = scale 0-100, read-out: Plant response rating, Radish, Wild
[5] = scale 0-100, read-out: Plant response rating, Mustard, Wild

FC(F)(F)c1cnn(-c2ccccc2Oc2ncc(Br)cn2)c1 [Compound 18, 5-bromo-2-[2-[4-(trifluoromethyl)-1H-pyrazol-1-yl]phenoxy]pyrimidine]
pest or weed control at 16 g/ha (pigweed): 30% | pest or weed control at 31 g/ha (pigweed): 100% | pest or weed control at 62 g/ha (pigweed; [1]): 100% | pest or weed control at 125 g/ha (pigweed; [1]): 100% | pest or weed control at 250 g/ha (pigweed; 250 g ai/ha, scale 0-100, read-out: Plant response rating, Pigweed): 100% | pest or weed control at 62 g/ha (blackgrass): 15% | pest or weed control at 16 g/ha (blackgrass): 10% | pest or weed control at 31 g/ha (blackgrass): 15% | pest or weed control at 125 g/ha (blackgrass): 20% | pest or weed control at 250 g/ha (blackgrass; 250 g ai/ha): 35% | pest or weed control at 16 g/ha (bluegrass): 15% | pest or weed control at 31 g/ha (bluegrass): 25% | pest or weed control at 62 g/ha (bluegrass): 30% | pest or weed control at 125 g/ha (bluegrass): 40% | pest or weed control at 250 g/ha (bluegrass; 250 g ai/ha): 40% | pest or weed control at 16 g/ha (deadnettle): 50% | pest or weed control at 31 g/ha (deadnettle; [2]): 65% | pest or weed control at 62 g/ha (deadnettle; [2]): 75% | pest or weed control at 125 g/ha (deadnettle; [2]): 90% | pest or weed control at 250 g/ha (deadnettle; 250 g ai/ha, scale 0 to 100 (0 no effect, 100 complete control), read-out: Plant response rating, Deadnettle): 100% | pest or weed control at 16 g/ha (field poppy): 80% | pest or weed control at 31 g/ha (field poppy; [3]): 75% | pest or weed control at 62 g/ha (field poppy; [3]): 75% | pest or weed control at 125 g/ha (field poppy; [3]): 100% | pest or weed control at 250 g/ha (field poppy; 250 g ai/ha, scale 0 to 100 (0 no effect, 100 complete control), read-out: Plant response rating, Field Poppy): 100% | pest or weed control at 16 g/ha (wild radish): 100% | pest or weed control at 31 g/ha (wild radish): 100% | pest or weed control at 62 g/ha (wild radish; [4]): 100% | pest or weed control at 125 g/ha (wild radish; [4]): 100% | pest or weed control at 250 g/ha (wild radish; 250 g ai/ha, scale 0-100, read-out: Plant response rating, Radish, Wild): 100% | pest or weed control at 16 g/ha (wild mustard): 80% | pest or weed control at 31 g/ha (wild mustard; [5]): 85% | pest or weed control at 62 g/ha (wild mustard; [5]): 100% | pest or weed control at 125 g/ha (wild mustard; [5]): 90% | pest or weed control at 250 g/ha (wild mustard; 250 g ai/ha, scale 0-100, read-out: Plant response rating, Mustard, Wild): 100% | plant injury at 16 g/ha (spring barley): 5% | plant injury at 31 g/ha (spring barley): 5% | plant injury at 62 g/ha (spring barley): 10% | plant injury at 125 g/ha (spring barley): 15% | plant injury at 250 g/ha (spring barley; 250 g ai/ha): 25% | plant injury at 16 g/ha (winter barley): 10% | plant injury at 31 g/ha (winter barley): 10% | plant injury at 62 g/ha (winter barley): 10% | plant injury at 125 g/ha (winter barley): 15% | plant injury at 250 g/ha (winter barley; 250 g ai/ha): 20%

FC(F)(F)COc1cnn(-c2ccccc2Oc2ncc(Cl)cn2)c1 [Compound 138, 5-chloro-2-[2-[4-(2,2,2-trifluoroethoxy)-1H-pyrazol-1-yl]phenoxy]pyrimidine]
pest or weed control at 16 g/ha (pigweed): 0% | pest or weed control at 31 g/ha (pigweed): 25% | pest or weed control at 62 g/ha (pigweed; [1]): 100% | pest or weed control at 125 g/ha (pigweed; [1]): 100% | pest or weed control at 62 g/ha (blackgrass): 10% | pest or weed control at 16 g/ha (blackgrass): 5% | pest or weed control at 31 g/ha (blackgrass): 5% | pest or weed control at 125 g/ha (blackgrass): 15% | pest or weed control at 16 g/ha (bluegrass): 0% | pest or weed control at 31 g/ha (bluegrass): 5% | pest or weed control at 62 g/ha (bluegrass): 5% | pest or weed control at 125 g/ha (bluegrass): 10% | pest or weed control at 16 g/ha (deadnettle): 5% | pest or weed control at 31 g/ha (deadnettle; [2]): 5% | pest or weed control at 62 g/ha (deadnettle; [2]): 15% | pest or weed control at 125 g/ha (deadnettle; [2]): 25% | pest or weed control at 16 g/ha (field poppy): 30% | pest or weed control at 31 g/ha (field poppy; [3]): 35% | pest or weed control at 62 g/ha (field poppy; [3]): 40% | pest or weed control at 125 g/ha (field poppy; [3]): 75% | pest or weed control at 16 g/ha (wild radish): 90% | pest or weed control at 31 g/ha (wild radish): 85% | pest or weed control at 62 g/ha (wild radish; [4]): 70% | pest or weed control at 125 g/ha (wild radish; [4]): 85% | pest or weed control at 16 g/ha (wild mustard): 55% | pest or weed control at 31 g/ha (wild mustard; [5]): 65% | pest or weed control at 62 g/ha (wild mustard; [5]): 100% | pest or weed control at 125 g/ha (wild mustard; [5]): 100% | plant injury at 16 g/ha (spring barley): 10% | plant injury at 31 g/ha (spring barley): 10% | plant injury at 62 g/ha (spring barley): 10% | plant injury at 125 g/ha (spring barley): 15% | plant injury at 16 g/ha (winter barley): 5% | plant injury at 31 g/ha (winter barley): 5% | plant injury at 62 g/ha (winter barley): 5% | plant injury at 125 g/ha (winter barley): 10%
